In PMC3904506 (International journal of biological macromolecules, 2013):
Where a name gives a salt, the structure may show the parent alone. Read-outs that look alike come from different tables or passages of the source. Each block holds one compound with its values, some of them ahead of it.

Legend:
CDA variant Q27/A70 [1] = biological target: T1, CDA variant Q27/A70 (Homo sapiens, UniProt P32320, K27Q); test: CDA activity assay, substrate kinetics, Q27/A70 variant; details: 37 °C
CDA variant K27/A70 [2] = biological target: T2, CDA variant K27/A70 (Homo sapiens, UniProt P32320); test: CDA activity assay, substrate kinetics, K27/A70 variant
CDA mutant E24Q [3] = biological target: T3, CDA mutant E24Q (Homo sapiens, UniProt P32320, E24Q); test: CDA activity assay, substrate kinetics, E24Q mutant; details: 37 °C
CDA variant K27/T70 [4] = biological target: T4, CDA variant K27/T70 (Homo sapiens, UniProt P32320, A70T); test: CDA activity assay, substrate kinetics, K27/T70 variant; details: 37 °C
CDA variant K27/T70 [5] = biological target: T4, CDA variant K27/T70; test: Inhibition of deoxycytidine deamination, K27/T70 variant
CDA mutant E24Q [6] = biological target: T3, CDA mutant E24Q; test: Inhibition of deoxycytidine deamination, E24Q mutant
CDA variant Q27/A70 [7] = biological target: T1, CDA variant Q27/A70; test: Inhibition of deoxycytidine deamination, Q27/A70 variant
CDA variant K27/A70 [8] = biological target: T2, CDA variant K27/A70; test: Oxidative resistance experiments, K27/A70 variant; type: biochemical
CDA mutant E24Q [9] = biological target: T3, CDA mutant E24Q; test: Oxidative resistance experiments, E24Q mutant; type: biochemical
CDA variant Q27/A70 [10] = biological target: T1, CDA variant Q27/A70; test: Oxidative resistance experiments, Q27/A70 variant; type: biochemical
CDA variant K27/T70 [11] = biological target: T4, CDA variant K27/T70; test: Oxidative resistance experiments, K27/T70 variant; type: biochemical
CDA variant K27/A70 [12] = biological target: T2, CDA variant K27/A70; test: Inhibition of deoxycytidine deamination, K27/A70 variant; details: double-reciprocal plots, substrate deoxycytidine
[13] = 100 μM NaOCl, 60 min of incubation, 37 °C
[14] = read-out: K0.5 (concentration at 50% inhibition of activity), NaOCl
[15] = K27/T70, double-reciprocal plots, substrate deoxycytidine
[16] = Q27/A70, double-reciprocal plots, substrate deoxycytidine

T3 sequence (P32320 whole entry E24Q): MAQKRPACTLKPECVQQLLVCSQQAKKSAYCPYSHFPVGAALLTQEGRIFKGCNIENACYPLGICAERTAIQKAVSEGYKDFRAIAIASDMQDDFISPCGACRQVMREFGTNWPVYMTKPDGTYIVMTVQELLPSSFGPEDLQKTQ
T4 sequence (P32320 whole entry A70T): as the sequence (P32320 whole entry E24Q) above, with Q24E, A70T counted along it
T1 sequence (P32320 whole entry K27Q): as the sequence (P32320 whole entry E24Q) above, with Q24E, K27Q counted along it

SMILES: Nc1ccn([C@H]2CC[C@@H](CO)O2)c(=O)n1 [2′,3′-CdR, 2′,3′-dideoxycytidine]
Km (CDA variant Q27/A70 [1]): not substrate
Km (CDA variant K27/A70 [2]; 37 °C): not substrate
Km (CDA mutant E24Q [3]): not substrate
Km (CDA variant K27/T70 [4]): not substrate

SMILES: Nc1ccn([C@H]2C[C@H](O)[C@@H](CO)O2)c(=O)n1 [CdR, 2′-deoxycytidine]
enthalpy of binding ΔH (van't Hoff plot) (CDA variant K27/A70 [2]; temperature range 10–35 °C): 3.57 kcal/mol
enthalpy of binding ΔH (van't Hoff plot) (CDA variant K27/A70 [2]; temperature range 35–80 °C): -8.88 kcal/mol

SMILES: OO [H2O2, hydrogen peroxide]
IC50 (CDA variant K27/A70 [8]; read-out: K0.5, H2O2): 23500 µM
IC50 (CDA mutant E24Q [9]; read-out: K0.5, H2O2): 8000 µM
IC50 (CDA variant Q27/A70 [10]; read-out: K0.5, H2O2): 15000 µM
IC50 (CDA variant K27/T70 [11]; read-out: K0.5, H2O2): 11500 µM

SMILES: [Na+].[O-]Cl [NaOCl, sodium hypochlorite]
residual activity (CDA variant K27/A70 [8]; [13]): 32%
IC50 (CDA variant K27/A70 [8]; [14]): 60 µM
residual activity (CDA mutant E24Q [9]; NaOCl (100 μM, Fig. 6A), 60 min of incubation): 97%
IC50 (CDA mutant E24Q [9]; [14]): 1000 µM
residual activity (CDA variant Q27/A70 [10]; [13]): 49%
IC50 (CDA variant Q27/A70 [10]; [14]): 100 µM
residual activity (CDA variant K27/T70 [11]; [13]): 27.5%

Second part, the compound after the results:

Ki (CDA variant K27/T70 [5]): 2.4 µM
Ki (CDA mutant E24Q [6]): 2.9 µM
Ki (CDA variant Q27/A70 [7]): 1.8 µM
SMILES: Nc1ccn([C@@H]2O[C@H](CO)[C@@H](O)[C@H]2O)c(=O)c1 [3-Deaza-cytidine]

increase in catalytic efficiency with respect to the Q27/A70 and K27/T70 variants (CDA variant K27/A70 [2]): 3 fold
SMILES: Nc1ncn([C@@H]2O[C@H](CO)[C@@H](O)[C@@H]2O)c(=O)n1 [Fazarabine, 1-β-D-arabinofuranosyl-5-azacytosine]

Ki (CDA variant K27/T70 [5]; [15]): 60 µM
Ki (CDA variant Q27/A70 [7]; [16]): 46 µM
Ki (CDA variant K27/A70 [12]): 28 µM
SMILES: Nc1ncc([C@@H]2O[C@H](CO)[C@@H](O)[C@H]2O)c(=O)[nH]1 [Pseudoisocytidine-HCl]

Ki (CDA variant K27/T70 [5]; [15]): 0.26 µM
Ki (CDA variant Q27/A70 [7]; [16]): 0.26 µM
Ki (CDA variant K27/A70 [12]): 0.04 µM
SMILES: O=C1NC(O)CCN1[C@H]1C[C@H](O)[C@@H](CO)O1 (stereo partly drawn) [Tetrahydro-2′-deoxyuridine]
